Experimental data: patent USRE29828E, “1-Substituted-3-amidopyrrolidines” (A. H. Robins Company, Inc., priority 1976, dated 1978)
Where a name gives a salt, the structure may show the parent alone.

The compounds below were run on depressant action of tetrabenazine in mice (assay: anti-depressant effect: antagonism of the depressant action of tetrabenazine in mice). Conditions: Mus musculus, read-out: ED50 (dose effective in 50 percent of the treated mice), anti-depressant effect.
Format: in vivo
Protocol: The anti-depressant effect of some compounds of this invention was assessed by their ability to antagonize the depressant action of tetrabenazine (2-oxo-3-isobutyl-9,10-dimethoxy- 1,2,3,4,6,7 -hexahydro-11bH-benzo[a]quinolizine) in mice [Englehardt et al. J. Med. Chem. 11 (2), 325 (1968)].

First: CN1CCC(N(C(=O)c2ccc(Cl)cc2)c2ccccc2)C1 (stereo not drawn) [Example 15, 1-methyl-3-[N-phenyl-(4-chlorobenzamido)]pyrrolidine fumarate]
Second: CN1CCC(N(C(=O)c2ccc(F)cc2)c2ccccc2)C1 (stereo not drawn) [Example 38]
The ED50 of the first is 8-fold lower: 0.6 mg/kg for the first, 4.8 mg/kg for the second.

Going from `CN1CCC(N(C(=O)c2ccccc2)c2ccccc2)C1` (stereo not drawn) [Example 29] to `CN1CCC(N(C(=O)c2cccc(Cl)c2)c2ccccc2)C1` (stereo not drawn) [Example 37], the ED50 rises from 1.7 mg/kg to 2.8 mg/kg (1.6-fold).

`CN1CCC(N(C(=O)c2cccc(C(F)(F)F)c2)c2ccccc2)C1` (stereo not drawn) [Example 36] and `CCN1CCC(N(C(=O)c2ccccc2)c2cccc(C(F)(F)F)c2)C1` (stereo not drawn) [Example 44] are within 1.5-fold of each other in ED50: 2.8 mg/kg for the first, 2 mg/kg for the second.

Going from `CN1CCC(N(C(=O)c2ccc(Br)cc2)c2ccccc2)C1` (stereo not drawn) [Example 40] to `CCN1CCC(N(C(=O)c2ccc(Cl)cc2)c2ccccc2)C1` (stereo not drawn) [Example 48], the ED50 falls from 15.5 mg/kg to 0.6 mg/kg (26-fold).

Going from `O=C(c1ccccc1)N(c1ccccc1)C1CCN(Cc2ccccc2)C1` (stereo not drawn) [Example 41] to `O=C(c1ccccc1)N(c1ccccc1)C1CCNC1` (stereo not drawn) [Example 42], the ED50 falls from 4.9 mg/kg to 2.4 mg/kg (2-fold).

Going from `CCN1CCC(N(C(=O)c2ccc(Cl)cc2)c2ccc(Cl)cc2)C1` (stereo not drawn) [Example 47] to `CN(C)CCCN1c2ccccc2CCc2ccccc21` [Tofranil®, reference compound], the ED50 falls from 4.9 mg/kg to 1.3 mg/kg (3.8-fold).

Same assay, conditions: Mus musculus; mice; antagonism of depressant action of tetrabenazine; read-out: ED50 (dose effective in 50 percent of the treated mice), anti-depressant effect

With `CN(C)CCC=C1c2ccccc2CCc2ccccc21` [Elavil®, reference compound] the ED50 was 1.1 mg/kg.

The compounds below were run on mice (assay: animal or person). Conditions: Mus musculus, read-out: ED50 (dose effective in 50 percent of the treated mice), analgetic effect.
Format: in vivo

`CCC(=O)O[C@](Cc1ccccc1)(c1ccccc1)[C@H](C)CN(C)C` [Darvon®, reference compound] and `CCC(=O)N(c1ccccc1)C1CCN(CCOc2ccccc2)C1` (stereo not drawn) [Example 17, 1-(2-phenoxyethyl)-3-(N-phenylpropionamido)pyrrolidine hydrochloride] are within 1.5-fold of each other in ED50: 11.2 mg/kg for the first, 14.2 mg/kg for the second.

`CCOC(=O)C1(c2ccccc2)CCN(C)CC1` [Demerol®, reference compound] and `C=CCN1CCC(N(C(=O)CC)c2ccccc2)C1` (stereo not drawn) [Example 5] are within 1.5-fold of each other in ED50: 6.4 mg/kg for the first, 8 mg/kg for the second.

First: CCC(=O)N(c1ccccc1OC)C1CCN(CCOc2ccccc2)C1 (stereo not drawn) [Example 4, 1-(2-phenoxethyl)-3-[N-(2-methoxyphenyl)propionamido]pyrrolidine]
Second: CCC(=O)N(c1ccccc1)C1CCN(CCOc2ccccc2OC)C1 (stereo not drawn) [Example 18, 1-[2-(2-methoxyphenoxy)ethyl]-3-(N-phenylpropionamido)-pyrrolidine]
The ED50 of the first is 2-fold higher: 6.8 mg/kg for the first, 3.4 mg/kg for the second.

Compared with `CN1CCC(N(C(=O)c2ccc(Cl)cc2)c2ccccc2)C1` (stereo not drawn) [Example 15, 1-methyl-3-[N-phenyl-(4-chlorobenzamido)]pyrrolidine fumarate], `CN1CCC(N(C(=O)COc2ccc(Cl)cc2)c2ccccc2)C1` (stereo not drawn) [Example 31] is 3.2-fold higher in ED50: 5.2 mg/kg for the first, 16.5 mg/kg for the second.
